Laboratory results from PubChem BioAssay AID1963850 (Molecular Pharmacology Branch, DTP, NCI, 2024).

Test system: 192522-019-R-J2-PDC complex tumor spheroid viability
Experiment: Anticancer human tumor 192522-019-R-J2-PDC patient-derived colon adenocarcinoma cell line growth inhibition [POLQ]
Details: for IC50: curve of first compound; for viability, T/C: stronger effect = lower value
Method: Multicellular complex tumor spheroid response to Polymerase (POL) inhibitors (novobiocin, ART-558, RP6685) in combination with a variety of drugs and investigational agents in selected tumor cell lines
The POL inhibitors (novobiocin, ART-558, and RP6685) were evaluated both individually and in combination with standard of care and investigational anticancer small molecules within a complex spheroid model of solid tumors. . Complex spheroids include a stromal component modeled by human endothelial cells (HUVEC) and fibroblasts modeled by human mesenchymal stem cells (MSCs). The concentration ranges selected for each drug and investigational agent were based upon clinically achievable concentrations if the clinical Cmax of the agent was known.
Compounds. The drugs and investigational agents: novobiocin (NSC847541), ART-558 (NSC835418), RP-6685 (NSC848927), peposertib (NSC802822), ceralasertib (NSC780249), elimusertib (NSC800525), camonsertib (NSC841442), AZD-1390 (NSC803789), olaparib (NSC753686), talazoparib (NSC767125), rucaparib (NSC756644), sotorasib (NSC818433), MRTX-1133 (NSC836407), SN-38 (NSC673596), topotecan (NSC609699), epotoside (NSC141540), doxorubicin (NSC123127), gemcitabine (NSC613327), 5-fluorouracil (NSC19893), paclitaxel (NSC125973), vemurafenib (NSC761431), MSA-2 (NSC828583), SN-011 (NSC837082), adavosertib (NSC754352), prexasertib (NSC758257), carboplatin (NSC241240) and oxaliplatin (NSC266046), were obtained from the National Cancer Institute (NCI) Developmental Therapeutics Program Chemical Repository (21). The FDA-approved anticancer drug set is available from the Developmental Therapeutics Program at https://dtp.cancer.gov/organization/dscb/obtaining/. […] The stock solutions were prepared in dimethyl sulfoxide (DMSO, Sigma-Aldrich, St. Louis, MO, cat. D2650), except for the platinum compounds which were prepared in saline (Quality Biological, Gaithersburg, MD, cat. 114-055-101), at 800-fold the tested concentration and stored at -70 degrees C prior to their use. All drugs and investigational agents were tested over a range starting from a high concentration at or near the clinical Cmax and decreasing in half-log increments. If the clinical Cmax for an agent had not been determined, the highest concentration tested was 10 microM, except for SN-38, which was tested at a high concentration of 1 microM.
Cell Culture. All cells were maintained in an incubator at 37 degrees C and 5% CO2 with 95% humidity. The PDC lines were cultured according to standard operating procedures established by the NCI PDMR (https://pdmr.cancer.gov). Table 3 of the manuscript, lists the cell lines along with the number of the three cell types plated to form the mct-spheroids and media for tumor cell growth. After thawing, all PDC lines, except 997537-175-T-J1-PDC and 415267-285-R-J2-PDC, were cultured in Matrigel-coated flasks prepared with a working solution of 1X Ham's F-12 nutrient mix, without supplementation (Thermo Fisher Scientific, cat. 11765054), 100 U/mL penicillin-streptomycin (Thermo Fisher Scientific, cat. 15140122), and 2.5% Matrigel (Corning Inc., Corning, NY, cat. 354248) for the first three passages. The two PDC lines 997537-175-T-J1-PDC and 415267-285-R-J2-PDC were cultured on uncoated flasks. The 857933-349-R-J2-PDC line was cultured in 6C/Colon 1B media containing advanced DMEM/F-12 (Thermo Fisher Scientific, cat. 12634028), 10 mM HEPES (Thermo Fisher Scientific, cat. 15630080), 1X GlutaMAX supplement (Thermo Fisher Scientific, cat. 35050061), 0.1 mg/mL primocin (InvivoGen, San Diego, CA, cat. ant-pm-2), 10% defined fetal bovine serum, heat inactivated (HyClone Laboratories Inc., Logan, UT, cat. SH30070.03HI), 50% L-WRN conditioned media (ATCC, cat. CRL-3276), 1.25 mM N-Acetyl-L-cysteine (Sigma-Aldrich, cat. A9165), 10 mM nicotinamide (Sigma-Aldrich, cat. N0636), 1X B-27 supplement (Thermo Fisher Scientific, cat. 17504044), 1X N-2 supplement (Thermo Fisher Scientific, cat. […]

[1] = second compound 0.0316 µM, first compound 0.00316 µM
[2] = second compound 0.0316 µM, first compound 0.01 µM
[3] = second compound 0.0316 µM, first compound 0.0316 µM
[4] = second compound 0.0316 µM, first compound 0.1 µM
[5] = second compound 0.1 µM, first compound 0.00316 µM
[6] = second compound 0.1 µM, first compound 0.01 µM
[7] = second compound 0.1 µM, first compound 0.0316 µM
[8] = second compound 0.1 µM, first compound 0.1 µM
[9] = second compound 0.316 µM, first compound 0.00316 µM
[10] = second compound 0.316 µM, first compound 0.01 µM
[11] = second compound 0.316 µM, first compound 0.0316 µM
[12] = second compound 0.316 µM, first compound 0.1 µM
[13] = second compound 1 µM, first compound 0.00316 µM
[14] = second compound 1 µM, first compound 0.01 µM
[15] = second compound 1 µM, first compound 0.0316 µM
[16] = second compound 1 µM, first compound 0.1 µM
[17] = second compound 3.16 µM, first compound 0.00316 µM
[18] = second compound 3.16 µM, first compound 0.01 µM
[19] = second compound 3.16 µM, first compound 0.0316 µM
[20] = second compound 3.16 µM, first compound 0.1 µM
[21] = second compound 10 µM, first compound 0.00316 µM
[22] = second compound 10 µM, first compound 0.01 µM
[23] = second compound 10 µM, first compound 0.0316 µM
[24] = second compound 10 µM, first compound 0.1 µM
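Note: spheroids exposed to drugs for seven days before reading.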
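Throughout, for viability, T/C: 100% = DMSO vehicle control viability in luminescence.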

## COc1cccc(OCCCN)c1-c1cc(Nc2cnc(C#N)cn2)n[nH]1 + Cc1cccc(N(C)C(=O)C2C(O)CCN2c2nc(C)cc(C(F)(F)F)c2C#N)c1
Second compound 0.0316 µM
  IC50: 28.3 nM
Second compound 0.1 µM
  IC50: 30.1 nM
Second compound 0.316 µM
  IC50: 48.4 nM
Second compound 1 µM
  IC50: 71.6 nM
Second compound 3.16 µM
  IC50: 59.1 nM
Second compound 10 µM
  IC50: 54.6 nM
[1]
  viability, T/C: 91.4%
[2]
  viability, T/C: 92.1%
[3]
  viability, T/C: 45.4%
[4]
  viability, T/C: 41%
Second compound 0.0316 µM, first compound 0.316 µM
  viability, T/C: 39.8%
Second compound 0.0316 µM, first compound 1 µM
  viability, T/C: 38%
[5]
  viability, T/C: 107%
[6]
  viability, T/C: 83.4%
[7]
  viability, T/C: 49.5%
[8]
  viability, T/C: 35.5%
Second compound 0.1 µM, first compound 0.316 µM
  viability, T/C: 41.1%
Second compound 0.1 µM, first compound 1 µM
  viability, T/C: 39%
[9]
  viability, T/C: 100%
[10]
  viability, T/C: 86.2%
[11]
  viability, T/C: 54%
[12]
  viability, T/C: 44%
Second compound 0.316 µM, first compound 0.316 µM
  viability, T/C: 38.1%
Second compound 0.316 µM, first compound 1 µM
  viability, T/C: 43.4%
[13]
  viability, T/C: 115%
[14]
  viability, T/C: 97.4%
[15]
  viability, T/C: 62%
[16]
  viability, T/C: 44.9%
Second compound 1 µM, first compound 0.316 µM
  viability, T/C: 45.3%
Second compound 1 µM, first compound 1 µM
  viability, T/C: 36.8%
[17]
  viability, T/C: 108%
[18]
  viability, T/C: 99.2%
[19]
  viability, T/C: 58.8%
[20]
  viability, T/C: 41.5%
Second compound 3.16 µM, first compound 0.316 µM
  viability, T/C: 44.1%
Second compound 3.16 µM, first compound 1 µM
  viability, T/C: 39.9%
[21]
  viability, T/C: 105%
[22]
  viability, T/C: 89.4%
[23]
  viability, T/C: 53%
[24]
  viability, T/C: 47.2%
Second compound 10 µM, first compound 0.316 µM
  viability, T/C: 48%
Second compound 10 µM, first compound 1 µM
  viability, T/C: 43.6%

## CC[C@@]1(O)C(=O)OCc2c1cc1n(c2=O)Cc2cc3c(CN(C)C)c(O)ccc3nc2-1 + Cc1cccc(N(C)C(=O)C2C(O)CCN2c2nc(C)cc(C(F)(F)F)c2C#N)c1
Second compound 0.0316 µM
  IC50: > 100 nM
Second compound 0.1 µM
  IC50: > 100 nM
Second compound 0.316 µM
  IC50: > 100 nM
Second compound 1 µM
  IC50: > 100 nM
Second compound 3.16 µM
  IC50: > 100 nM
Second compound 10 µM
  IC50: > 100 nM
Second compound 0.0316 µM, first compound 0.000316 µM
  viability, T/C: 116%
Second compound 0.0316 µM, first compound 0.001 µM
  viability, T/C: 93.7%
[1]
  viability, T/C: 103%
[2]
  viability, T/C: 99.2%
[3]
  viability, T/C: 98.7%
[4]
  viability, T/C: 62.4%
Second compound 0.1 µM, first compound 0.000316 µM
  viability, T/C: 106%
Second compound 0.1 µM, first compound 0.001 µM
  viability, T/C: 98.4%
[5]
  viability, T/C: 102%
[6]
  viability, T/C: 94.5%
[7]
  viability, T/C: 88%
[8]
  viability, T/C: 64.5%
Second compound 0.316 µM, first compound 0.000316 µM
  viability, T/C: 102%
Second compound 0.316 µM, first compound 0.001 µM
  viability, T/C: 106%
[9]
  viability, T/C: 104%
[10]
  viability, T/C: 102%
[11]
  viability, T/C: 93.8%
[12]
  viability, T/C: 70%
Second compound 1 µM, first compound 0.000316 µM
  viability, T/C: 106%
Second compound 1 µM, first compound 0.001 µM
  viability, T/C: 106%
[13]
  viability, T/C: 111%
[14]
  viability, T/C: 102%
[15]
  viability, T/C: 96.2%
[16]
  viability, T/C: 75.2%
Second compound 3.16 µM, first compound 0.000316 µM
  viability, T/C: 99.2%
Second compound 3.16 µM, first compound 0.001 µM
  viability, T/C: 114%
[17]
  viability, T/C: 115%
[18]
  viability, T/C: 98.4%
[19]
  viability, T/C: 102%
[20]
  viability, T/C: 79.5%
Second compound 10 µM, first compound 0.000316 µM
  viability, T/C: 110%
Second compound 10 µM, first compound 0.001 µM
  viability, T/C: 107%
[21]
  viability, T/C: 120%
[22]
  viability, T/C: 102%
[23]
  viability, T/C: 95.3%
[24]
  viability, T/C: 75%
